Test results as given in patent US6531584B1, “2'modified oligonucleotides” (ISIS Pharmaceuticals, Inc., priority 1990, dated 2003).
Several values for one entry are separate records, joined by “and”; a condition that tells them apart may be missing. Equal entries are not always repeated. Strand notation (5' to 3'): a small letter for the sugar, then the base; units joined by * are phosphorothioate-linked, units joined directly phosphodiester-linked; [ ] holds rarer units or linkages, { } end groups; capitals alone tell only the bases. d = 2'-deoxy (DNA); m = 2'-O-methyl; f = 2'-fluoro

How the values were obtained:
[1] = system: complementary RNA strand (the sense strand); assay: Thermal melting analysis of 2′-deoxy-2′-fluoro modified antisense oligonucleotides with complementary RNA; format: binding; settings: for Tm (° C.)/ subst.: change in Tm per 2′-fluoro substitution; for Tm (° C.): second Tm column: change in Tm versus unmodified oligonucleotide
[2] = system: mutant (activated) H-ras RNA; format: cell-based, human
PKC-α mRNA = assay: Northern blot analysis of PKC-α mRNA levels; format: cell-based, human; settings: FIGS. 3 to 5
Protocol: Oligonucleotides having SEQ ID NO:4 were synthesized as uniformly phosphorothioate chimeric oligonucleotides having a centered deoxy gap of varying lengths flanked by 2′-O-methylated regions. These oligonucleotides (500 nM concentration) were tested for effects on PKC-α mRNA levels by Northern blot analysis.

ras mRNA = assay: Northern blot analysis of ras expression in T24 cells; format: cell-based, human; parameters: inhibition of ras expression / decrease of ras mRNA: concentration or dose not given beside the values; settings: T24 cells, Northern blot
Protocol: The human urinary bladder cancer cell line T24 was obtained from the American Type Culture Collection (Rockville Md.). Cells were grown in McCoy's 5A medium with L-glutamine (GIBCO-BRL, Gaithersburg, Md.), supplemented with 10% heat-inactivated fetal calf serum and 50 U/ml each of penicillin and streptomycin. Cells were seeded on 100 mm plates. When they reached 70% confluency, they were treated with oligonucleotide. Plates were washed with 10 ml prewarmed PBS and 5 ml of OptiMEM (GIBCO) reduced-serum medium containing 2.5 μl DOTMA. Oligonucleotide was then added to the desired concentration. After 4 hours of treatment, the medium was replaced with McCoy's medium. Cells were harvested 48 hours after oligonucleotide treatment and RNA was isolated using a standard CsCl purification method. [Kingston in Current Protocols in Molecular Biology, F. M. Ausubel, R. Brent, R. E. Kingston, D. D. Moore, J. A. Smith, J. G. Seidman and K. Strahl, Eds., John Wiley and Sons, New York.] The human epithelioid carcinoma cell line HeLa 229 was obtained from the American Type Culture Collection (Bethesda, Md.). HeLa cells were maintained as monolayers on 6-well plates in Dulbecco's Modified Eagle's medium (DMEM) supplemented with 10% fetal bovine serum and 100 U/ml penicillin. Treatment with oligonucleotide and isolation of RNA were essentially as described above for T24 cells.
Northern hybridization: 10 μg of each RNA was electrophoresed on a 1.2% agarose/formaldehyde gel and transferred overnight to GeneBind 45 nylon membrane (Pharmacia LKB, Piscataway, N.J.) using standard methods. [Kingston in Current Protocols in Molecular Biology, F. M. Ausubel, R. Brent, R. E. Kingston, D. D. Moore, J. A. Smith, J. G. Seidman and K. Strahl, Eds., John Wiley and Sons, New York.] RNA was UV-crosslinked to the membrane. Double-stranded ^32P-labeled probes were synthesized using the Prime a Gene labeling kit (Promega, Madison, Wis.). The ras probe was a SalI-NheI fragment of a cDNA clone of the activated (mutant) H-ras mRNA having a GGC-to-GTC mutation at codon-12. The control probe was G3PDH. Blots were prehybridized for 15 minutes at 68° C. with the QuickHyb hybridization solution (Stratagene, La Jolla, Calif.). The heat-denatured radioactive probe (2.5×10^6 counts/2 ml hybridization solution) mixed with 100 μl of 10 mg/ml salmon sperm DNA was added and the membrane was hybridized for 1 hour at 68° C. The blots were washed twice for 15 minutes at room temperature in 2×SSC/0.1% SDS and once for 30 minutes at 60° C. with 0.1×SSC/0.1%SDS. Blots were autoradiographed and the intensity of signal was quantitated using an ImageQuant PhosphorImager (Molecular Dynamics, Sunnyvale, Calif.). Northern blots were first hybridized with the ras probe, then stripped by boiling for 15 minutes in 0.1×SSC/0.1%SDS and rehybridized with the control G3PDH probe to check for correct sample loading.

c-raf mRNA = assay: Northern blot analysis of c-raf mRNA expression in T24 cells; format: cell-based, human
Text: Chimeric oligonucleotides having SEQ ID NO:7 were designed using the Genbank c-raf sequence HUMRAFR (Genbank listing x03484), synthesized and tested for inhibition of c-raf mRNA expression in T24 bladder carcinoma cells using a Northern blot assay. These chimeric oligonucleotides have central “gap” regions of 6, 8 or 10 deoxynucleotides flanked by two regions of 2′-O-methyl modified nucleotides, and are shown in Table 10. Backbones were uniformly phosphorothioate. […] These oligonucleotides are preferred.
The human urinary bladder cancer cell line T24 was obtained from the American Type Culture Collection (Rockville, Md.). Cells were grown in McCoy's 5A medium with L-glutamine (GIBCO-BRL, Gaithersburg, Md.), supplemented with 10% heat-inactivated fetal calf serum and 50 U/ml each of penicillin and streptomycin. Cells were seeded on 100 mm plates. When they reached 70% confluency, they were treated with oligonucleotide. Plates were washed with 10 ml prewarmed PBS and 5 ml of OptiMEM reduced-serum medium containing 2.5 μl DOTMA. Oligonucleotide with lipofectin was then added to the desired concentration. After 4 hours of treatment, the medium was replaced with McCoy's medium. Cells were harvested 24 to 72 hours after oligonucleotide treatment and RNA was isolated using a standard CsCl purification method. [Kingston in Current Protocols in Molecular Biology, F. M. Ausubel, R. Brent, R. E. Kingston, D. D. Moore, J. A. Smith, J. G. Seidman and K. Strahl, Eds., John Wiley and Sons, New York.] Total RNA was isolated by centrifugation of cell lysates over a CsCl cushion. RNA samples were electrophoresed through 1.2% agarose-formaldehyde gels and transferred to hybridization. membranes by capillary diffusion over a 12-14 hour period. The RNA was cross-linked to the membrane by exposure to UV light in a Stratalinker (Stratagene, La Jolla, Calif.) and hybridized to random-primed ^32P-labeled c-raf cDNA probe (obtained from ATCC) or G3PDH probe as a control. RNA was quantitated using a Phosphorimager (Molecular Dynamics, Sunnyvale, Calif.).

[3] = first G°37 column: free energy of duplex with complementary RNA
[4] = second G°37 column: change versus unmodified oligonucleotide

CGA CUAUGCAAG UAC (CGACUAUGCAAGUAC; chemistry not fully specified)
Tm (° C.)/ subst. [1]: +1.7 °C
G°37 [1, 3]: -16.18 ± 0.08 kcal/mol
G°37 [1, 4]: -6.07 ± 0.09 kcal/mol
Tm (° C.) [1]: +13.8 °C

C^MC^MA^M C^MA^MC^M C^MGdAd CdG^MG^M C^MG^MC^M C^MC^M [Oligonucleotide 3979]
inhibition of ras-luciferase activity [2]: neither of the oligonucleotides having either the one or the three 2′-deoxy-erythro-pentofuranosyl nucleotide subsequences showed significant activity

CGACUAUGCAAG UAC (CGACUAUGCAAGUAC; chemistry not fully specified)
Tm (° C.)/ subst. [1]: +1.8 °C
G°37 [1, 3]: -19.85 ± 0.05 kcal/mol
G°37 [1, 4]: -9.74 ± 0.06 kcal/mol
Tm (° C.) [1]: +20.1 °C

TsCsTs CsGsCs TsGsGs TsGsAs GsTsTs TsC (TCTCGCTGGTGAGTTTC; all phosphorothioate, sugars by position and methylation of C not given here) [Oligonucleotide 7082]
reduction of PKC-α mRNA levels (PKC-α mRNA): most active in reducing PKC-α mRNA levels

AoAoAoAoCoGsTsCsAsGsCsCsAsTsGoGoToCoCoC (AAAACGTCAGCCATGGTCCC; listed as DNA, chemistry not fully specified) [Oligonucleotide 7273]
reduction of PKC-α mRNA levels (PKC-α mRNA): more active than their 2′-O-methyl counterparts

AsAsAsAsCsGsTsCsAsGsCsCsAsTsGsGsTsCsCsC (dA*dA*dA*dA*dC*dG*dT*dC*dA*dG*dC*dC*dA*dT*dG*dG*dT*dC*dC*dC) [Oligonucleotide 3522]
reduction of PKC-α mRNA levels (PKC-α mRNA): show reduction of PKC-α mRNA

C^MC^MA^M C^MA^MCd CdGdAd CdGdGd C^MG^MC^M C^MC^M (antisense CCACACCGACGGCGCCC; sugars from the 5' end m5 d7 m5, backbone and methylation of C not given here) [Oligonucleotide 3985, 2′-O-methyl P═S chimera, 7-deoxy gap]
inhibition of ras-luciferase activity [2]: greatest inhibition
inhibition of ras expression / decrease of ras mRNA (ras mRNA): 95% and 81%

AsAoAoAoCoGsTsCsAsGsCsCsAsTsGoGoToCoCsC (AAAACGTCAGCCATGGTCCC; listed as DNA, chemistry not fully specified) [Oligonucleotide 7294]
reduction of PKC-α mRNA levels (PKC-α mRNA): more active than their 2′-O-methyl counterparts

CsCsAsCsAsCsCsGsAoCsGsGsCsGsCsCsC [Oligonucleotide 4248]
effect on ras expression [2]: just as active as a full P═S molecule

C^FC^FA^F C^FA^FCd CdGdAd CdGdGd C^FG^FC^F C^FC^F [Oligonucleotide 4690]
inhibition of ras expression / decrease of ras mRNA (ras mRNA): 82%

C^MC^MA^M C^MA^MC^M CdGdAd CdGdG^M C^MG^MC^M C^MC^M [Oligonucleotide 3980]
inhibition of ras-luciferase activity [2]: next greatest inhibition
inhibition of ras expression / decrease of ras mRNA (ras mRNA): 61%

TTCTCGCCCGCTCCTCCTCC (2'-O-methyl P=S chimera, chemistry not fully specified) [ISIS 7856]
inhibition of c-raf mRNA expression (c-raf mRNA): > 70%

C^MC^MA^M C^MA^MC^M C^MG^MAd C^MG^MG^M C^MG^MC^M C^MC^M [Oligonucleotide 3975]
inhibition of ras-luciferase activity [2]: neither of the oligonucleotides having either the one or the three 2′-deoxy-erythro-pentofuranosyl nucleotide subsequences showed significant activity

oligonucleotide with the 2′-O-propyl diester flanking regions: SEQ ID NO:1, phosphorothioate in the 7-base deoxy gap only, phosphodiester 2′-O-propyl flanking regions (DNA CCACACCGACGGCGCCC; sugars by position and backbone not given here; 2'-O-propyl phosphodiester flanks, 7-base phosphorothioate deoxy gap)
effect on ras expression [2]: able to inhibit ras expression

TTCTCCTCCTCCCCTGGCAG (sugars from the 5' end m12 d8, all phosphorothioate, T or U not given here) [ISIS 7854]
inhibition of c-raf mRNA expression (c-raf mRNA): > 70%

TCCGTCATCGCTCCTCAGGG [Oligonucleotide 5122]
inhibition of ras expression / decrease of ras mRNA (ras mRNA; listed as 5122): 15%

C^MC^MA^M C^MAdCd CdGdAd CdGdGd CdG^MC^M C^MC^M [Oligonucleotide 3984]
inhibition of ras expression / decrease of ras mRNA (ras mRNA): 81%

AsAsAsAsCsGsTsCsAsGsCsCsAsTsGsGsTsCsCsC (AAAACGTCAGCCATGGTCCC; 2'-O-methyl/deoxy P=S chimera, chemistry not fully specified) [Oligonucleotide 5352]
reduction of PKC-α mRNA levels (PKC-α mRNA): most active

TsTsCs TsCsGs CsTsGs GsTsGs AsGsTs TsTsC (TTCTCGCTGGTGAGTTTC; all phosphorothioate, sugars by position and methylation of C not given here) [Oligonucleotide 6632]
reduction of PKC-α mRNA levels (PKC-α mRNA): most active in reducing PKC-α mRNA levels

CsCsAsCoAoCoCoGoAoCoGoGoCoGsCsCsC [Oligonucleotide 4241]
effect on ras expression [2]: completely inactive

AsAoAoAoCoGsTsCsAsGsCsCsAsTsGoGoToCoCsC (AAAACGTCAGCCATGGTCCC; linkages s1 o4 s9 o4 s1 (s phosphorothioate, o phosphodiester), sugars by position and methylation of C not given here; further chemistry not fully specified) [Oligonucleotide 7008]
reduction of PKC-α mRNA levels (PKC-α mRNA): show reduction of PKC-α mRNA

Oligonucleotide 4689: SEQ ID NO:1, 2′-fluoro-modified nucleotides flanking a 5-deoxy gap (CCACACCGACGGCGCCC; sugars from the 5' end f6 d5 f6, all phosphorothioate, methylation of C not given here)
inhibition of ras expression / decrease of ras mRNA (ras mRNA): 63%

CTTATATTCCGTCATCGCTC [Oligonucleotide 4998]
inhibition of ras expression / decrease of ras mRNA (ras mRNA; listed as 4998): 84%

CTTATATTCCGTCATCGCTC [Oligonucleotide 2502]
inhibition of ras expression / decrease of ras mRNA (ras mRNA; listed as 2502): 26%
